Laboratory results reported in patent US9539245B2, “Combination of immunotherapies with activators of Tie-2” (Aerpio Therapeutics, Inc., priority 2014, dated 2017).
Entries after “also recorded” stand apart in the source; their conditions may differ.

How the values were obtained:
[1] = tested on: MBMEC monolayers; test: Transwell permeability assay of MBMEC monolayers with fluorescent tracers; type: cell-based, mouse (C57BL/6J); details: MBMECs from C57BL/6J mice, FIG. 2
Description: MBMECs were isolated from CD1 and C57BL/6J mice pooling 4-6 animals in each preparation and cultured on transwell inserts. Permeability of the MBMEC monolayers to 0.45 kD Lucifer-Yellow (LY; Sigma™), Texas Red® 3 kD dextran (Invitrogen™), TMR 20 kD dextran (Sigma™) and 70 kD FITC dextran (Sigma™) was determined as follows. Medium from the bottom chamber at each time point was read in a fluorescence plate reader (Tecan™) at the corresponding tracer excitation/emission and normalized to the apical chamber fluorescence with the ratio for the control condition set to 100%.
To rule out the possibility that Ang-2-mediated permeability was specific to the CD1 strain of mice used in the experiment, transwell assays applying fluorescent dextrans (3 kD, 20 kD, and 70 kD) and Lucifer-Yellow (LY 0.45 kD), using C57BL/6J mice were conducted.

[2] = tested on: primary mouse brain endothelial cells (MBMECs); test: Transendothelial electrical resistance (TEER) measurements of MBMEC monolayers; type: cell-based; details: recombinant human Ang-2 treatment; CD1 mice; FIG. 1 PANEL B
Description: To assess the role of Angiopoietin 1 (Ang-1), Angiopoietin 2 (Ang-2), and a Tie-2 activator in modulating permeability at the blood-brain barrier transendothelial electrical resistance (TEER) measurements were performed to obtain continuous barrier tightness index of primary mouse brain endothelial cells (MBMECs).
TEER measurements were performed as follows: isolated mouse brain microvascular endothelial cells (MBMECs) (100,000 cells/cm^2, 4-6 mice/prep) were seeded onto 1 μm pore 24-well PET transwell inserts (Greiner Bio-One) pre-coated with fibronectin (5 μg/cm^2, Sigma-Aldrich™). The inserts were transferred to a cellZscope® device placed in a humidified incubator (37° C., 5% CO2) and impedance measurements obtained continuously. Treatment was started upon reaching a plateau in TEER levels.
Isolation of mouse brain microvascular endothelial cells (MBMECs) was conducted as follows: Meninges-free brains were pooled and homogenized followed by digesting the pellet with 0.75% Collagenase II (Worthington™) in buffer A (1:1:1 volume ratio) for 1 hour with shaking at 37° C. For removing myelin, samples were resuspended in 25% BSA and centrifuged at 1500×g for 30 min at 4° C., followed by digesting the pellet with Collagenase/Dispase® (Roche™) and DNase I (Worthington™) in buffer A for 12 min at 37° C. […]

[3] = tested on: Tie-2; test: Western blot and staining of the stroke hemisphere of treated mice; parameters: species or system mouse; details: in vivo
Description: (§1) For the Western blot experiments, samples were solubilized in urea/SDS buffer (2.3 M urea, 1.5% SDS, 50 mM Tris, 25 mM TCEP, and 0.01% BPB) for 1.5 h at 30° C. with shaking. Solubilized samples were loaded into Tris-HCl Bis-acrylamide gels (8-15%), electrophoresed, and subsequently transferred to nitrocellulose membranes at 4° C. overnight. Membranes were blocked for 1 hour at room temperature on a 1× Roti®-block (Roth™), incubated with primary antibodies overnight at 4° C., washed with PBS-T (0.5% Tween®-20), incubated with horseradish peroxidase-conjugated or fluorescent secondary antibodies (LI-COR™) for 1 h at room temperature. Membranes were imaged in Odyssey® (LI-COR™) imaging device and quantitation was performed on exported raw tiff files using Image Studio™ 2.1 software (LI-COR™).
Activation of Tie-2 upon treatment indicated by higher pTie-2 and pAkt levels in stroke hemispheres confirms in vivo activity (FIG. 15). […] FIG. 16 illustrates representative images (n=2 each group) of Tie-2 (red) and pTie-2 (green) staining of the stroke hemisphere.

[4] = tested on: Tie-2; test: Western blot analysis of MBMECs pre-treated with hAng-2; type: cell-based, mouse; details: MBMECs pretreated with hAng-2 (16 h, 500 ng/ml), then Tie-2 activator 50 μM, 10 min
Description: as §1
Activation of Tie-2/Akt by the Tie-2 activator alone indicates a direct and specific effect of this drug. Phosphorylation of VE-Cadherin responsible for increased junctional permeability was reduced upon treatment with the Tie-2 activator (FIGS. 13 and 14). This observation explains in part the decreased permeability and stroke size in vivo.

[5] = tested on: stroke after MCAO in mice; test: Middle cerebral artery occlusion (MCAO) stroke model in mice; type: in vivo, mouse
Description: Mice with endothelial-specific overexpression of hAng-2 (DT mice) underwent a permanent middle cerebral artery occlusion (MCAO). After a permanent MCAO was performed, animals were allowed to survive for 24 hours or 72 hours. Mice were anesthetized intraperitoneally (i.p.) with a combination of midazolam/medetomidine/fentanyl (5/0.5/0.05 mg/kg body mass). Anesthesia was terminated by i.p. injection of atipamezol/naloxone/flumazenil 2.5/1.2/0.5 mg/kg body weight). Brains were isolated and frozen down in Tissue TEK® O.C.T. and stored at −80° C. until use. WT mice also underwent the procedure as controls.
Larger infarcts were detected in DT mice that were subjected to MCAO as compared to WT mice that were subjected to MCAO after 24 hours and 72 hours (FIG. 9). Additionally, the IgG permeability in the stroke area was increased in DT mice (FIG. 10). Mice were treated with a Tie-2 activator shown below: […]

Compound | permeability to tracers (fluorescent dextrans 3 kD, 20 kD, 70 kD and Lucifer-Yellow 0.45 kD) [1] | transendothelial electrical resistance (TEER) of MBMECs [2] | Akt activation (pAkt) in the stroke hemisphere ([3]; Western blot, n=7, FIG. 15) | pTie-2 in the stroke hemisphere ([3]; treated mice compared to controls, FIGS. 15 and 16) | Akt activation (pAkt levels) ([4]; FIGS. 13 and 14) | Tie-2 activation (pTie-2 levels) ([4]; FIGS. 13 and 14) | phosphorylation of VE-Cadherin (pVE-Cadherin) ([4]; n=3) | stroke size (TTC staining) ([5]; WT mice after MCAO, compared to vehicle dH2O control, FIG. 11) | permeability to IgG in the stroke area ([5]; mice after MCAO, compared to control) | neurological behavior after stroke (behavior scoring test) ([5]; mice after stroke, FIG. 19)
rhAng-2: recombinant human angiopoietin 2, a Tie-2 ligand | increased permeability to tracers of all sizes | decrease in TEER; also recorded: decrease in transendothelial electrical resistance |  |  |  |  |  |  |  | 
CCc1nc([C@H](Cc2ccc(NS(=O)(=O)O)cc2)NC(=O)[C@H](Cc2ccccc2)NC(=O)OC)cs1 [Tie-2 activator] |  |  | increased Akt activation | increased pTie-2 staining | increased Tie-2 and Akt activation | increased levels of pTie-2 | decreased in tendency, but not significant | significantly decreased stroke sizes | Decreased permeability to IgG | improvement in neurological behavior
